This note sets out measurements from paper PMC6017536, “Synthesis and Smo Activity of Some Novel Benzamide Derivatives” (Molecules : A Journal of Synthetic Chemistry and Natural …, 2017).

In general, IC50 refers to the concentration needed to halve the response being measured.

One test deals with Hh signaling pathway (Gli-luc reporter, NIH3T3 cells). The experiment in a line: NIH3T3-Gli-luciferase reporter assay (Gli-Luc dual luciferase). It counts as cell-based, Mouse. The following applies: Mus musculus; NIH3T3 cells transfected with Gli luciferase reporter, stimulated with 10 nM SAG, 24 h; average of triplicate separate determinations. The method, then:
In the Hh signaling pathway activity test, we used the Gli-Luc double luciferase detection system, which is widely used to test the inhibitory activity of the Hh signaling pathway. […]
3.3.1. NIH3T3-Gli-Luciferase Reporter Assay
NIH3T3 cells (Chinese Academy of Sciences cell bank, Mouse embryonic fibroblast cell line) were grown in Dulbecco’s Modified Eagle Media (DMEM) media supplemented with 10% fetal bovine serum (FBS) at 37 °C with a humidified 5% CO2 atmosphere.
NIH3T3 cells were plated one day before transfection. To prepare NIH3T3 cells, enough cells were collected to complete the transfection experiment, and centrifuged for 5 min at 300× g. The cell pellet was resuspended to an appropriate concentration in DMEM media with 0.5% FBS, then 5000 cells were plated in 100 μL per well of a 96-well plate.
The NIH3T3 cells were transfected with the Glioma-associated oncogene (GLI)-reporter, negative control, and positive control constructs (QIAGEN, Cat# CCS-6030L) by using Fugene HD transfection reagents (Promega, Cat. No. E2311, Madison, WI). The FuGENER HD Transfection Reagent/DNA mixture was incubated for 15 min at room temperature. A total of 10 μL of the FuGENER HD Transfection Reagent/DNA mixture was added per well to the 96-well plate containing 100 μL cells in growth medium. The mixture was mixed gently using a plate shaker. Cells were returned to the incubator for 24–48 h. Transfection efficiency was estimated by observing green fluorescent protein (GFP) expression in the positive control wells by fluorescence microscopy.
[…] Cells were incubated with SAG and compounds for 24 h. To study the effect of test compounds, cells were harvested 24 h after treatment to perform the dual-luciferase assay.
Dual-Luciferase assays were conducted using the Dual-Luciferase® Assay System (Promega, Cat# E1910) according to Promega’s protocol. Each system included: 5X Passive Lysis Buffer (PLB), Luciferase Assay Buffer II, Luciferase Assay Substrate, and 50X Stop & Glo® Substrate and Stop & Glo® Buffer.
After 24 h treatment, the assay medium was removed and cells were washed with PBS buffer, and then 20 μL of 1XPLB was added to each well. The culture plates were incubated on a plate shaker with gentle shaking at room temperature for 15 min. A total of 100 μL LARII was added to each well, and the firefly luciferase luminescence signal was measured using an EnVision® 2104 Multilabel Reader (PerkinElmer, Waltham, MA, USA), with a measure time of 10s. A total of 100 μL Stop & Glo® Reagent was added to each well, and Renilla luciferase luminescence signal was measured using an EnVision® 2104 Multilabel Reader (PerkinElmer); the measure time was 10 s.
Relative Luciferase Units (RLU) Calculation
Firefly: Renilla activity ratios were generated from experimental and control transfections. Ratios from transcription factor-responsive reporter transfections were divided by ratios from negative control transfections to obtain relative luciferase units. […]
The histogram of % inhibition of compounds was generated by using GraphPad Prism 5.0 software (GraphPad Software Inc., La Jolla, CA, USA).
A general note: A reporter such as luciferase makes a cellular process visible.
`O=C(Nc1cc(CC(=O)N2CCN(S(=O)(=O)c3ccc(F)cc3)CC2)ccc1Cl)c1ccc(Cl)cc1` [Compound 8b, 4-Chloro-N-(2-chloro-5-(2-(4-((4-fluorophenyl)sulfonyl)piperazin-1-yl)-2-oxoethyl)phenyl)benzamide]: the midpoint of inhibition, the IC50, lay at 12.7 ± 0.16 µM.

Compound `COc1cc(OC)cc(C(=O)Nc2cccc(N3CCC(C(=O)N4CCN(C)CC4)CC3)c2)c1` [Compound 5l, 3,5-Dimethoxy-N-(3-(4-(4-methylpiperazine-1-carbonyl)piperidin-1-yl)phenyl)benzamide] came in with a half-maximal inhibitory concentration (IC50) of 1.83 ± 0.03 µM. `COc1cc(C(=O)NC(=S)Nc2cccc(NC(=O)c3ccccc3)c2)cc(OC)c1OC` [MRT10, reference compound] displayed a half-inhibitory concentration (IC50) of 2.15 µM. Same read-out and setting: in the case of `CN1CCN(C(=O)C2CCN(c3cccc(NC(=O)c4cccc([N+](=O)[O-])c4)c3)CC2)CC1` [Compound 5f, N-(3-(4-(4-methylpiperazine-1-carbonyl)piperidin-1-yl)phenyl)-3-nitrobenzamide] it was 53.34 ± 0.07 µM; in that of `CN1CCN(C(=O)C2CCN(c3cccc(NC(=O)c4ccc(F)cc4)c3)CC2)CC1` [Compound 5d, 4-Fluoro-N-(3-(4-(4-methylpiperazine-1-carbonyl)piperidin-1-yl)phenyl)benzamide], 15.51 ± 0.03 µM. `CN1CCN(C(=O)C2CCN(c3cccc(NC(=O)c4ccc(Br)cc4)c3)CC2)CC1` [Compound 5h, 4-Bromo-N-(3-(4-(4-methylpiperazine-1-carbonyl)piperidin-1-yl)phenyl)benzamide] had an IC50 of 7.85 ± 0.01 µM. With `CN1CCN(C(=O)C2CCN(c3cccc(NC(=O)c4cccc(F)c4)c3)CC2)CC1` [Compound 5e, 3-Fluoro-N-(3-(4-(4-methylpiperazine-1-carbonyl)piperidin-1-yl)phenyl)benzamide], the IC50 amounted to 17.59 ± 0.15 µM.

As to `CN1CCN(C(=O)C2CCN(c3cccc(NC(=O)c4cccc(Cl)c4)c3)CC2)CC1` [Compound 5c, 3-Chloro-N-(3-(4-(4-methylpiperazine-1-carbonyl)piperidin-1-yl)phenyl)benzamide], the IC50 is 14.63 ± 0.01 µM.

In turn, `CN1CCN(C(=O)C2CCN(c3cccc(NC(=O)c4cccc(-c5ccccn5)c4)c3)CC2)CC1` [Compound 5q, N-(3-(4-(4-methylpiperazine-1-carbonyl)piperidin-1-yl)phenyl)-3-(pyridin-2-yl)benzamide] displayed an IC50 of 1.26 ± 0.03 µM.

Take `CN1CCN(C(=O)C2CCN(c3cccc(NC(=O)c4ccc(Cl)cc4)c3)CC2)CC1` [Compound 5b, 4-Chloro-N-(3-(4-(4-methylpiperazine-1-carbonyl)piperidin-1-yl)phenyl)benzamide]: the half-maximal inhibitory concentration (IC50) stood at 12.47 ± 0.11 µM. Turning to `CN1CCN(C(=O)C2CCN(c3cccc(NC(=O)c4ccc(S(C)(=O)=O)cc4)c3)CC2)CC1` [Compound 5p, N-(3-(4-(4-methylpiperazine-1-carbonyl)piperidin-1-yl)phenyl)-4-(methylsulfonyl)benzamide], the half-inhibitory concentration (IC50) came out at 3.43 ± 0.08 µM. Still for that read-out and setting: in the case of `CN1CCN(C(=O)C2CCN(c3cccc(NC(=O)c4ccccc4Br)c3)CC2)CC1` [Compound 5m, 2-Bromo-N-(3-(4-(4-methylpiperazine-1-carbonyl)piperidin-1-yl)phenyl)benzamide] it was 10.49 ± 0.05 µM; in that of `CN1CCN(C(=O)C2CCN(c3cccc(NC(=O)c4ccc([N+](=O)[O-])cc4)c3)CC2)CC1` [Compound 5g, N-(3-(4-(4-methylpiperazine-1-carbonyl)piperidin-1-yl)phenyl)-4-nitrobenzamide], 60.56 ± 0.04 µM. The same measure, in the same setting: then `CS(=O)(=O)N1CCN(C(=O)Cc2ccc(Cl)c(NC(=O)c3ccc(Cl)cc3)c2)CC1` [Compound 8a, 4-Chloro-N-(2-chloro-5-(2-(4-(methylsulfonyl)piperazin-1-yl)-2-oxoethyl)phenyl)benzamide], with 6.88 ± 0.13 µM; and `CCCCS(=O)(=O)N1CCN(C(=O)Cc2ccc(Cl)c(NC(=O)c3ccc(Cl)cc3)c2)CC1` [Compound 8c, N-(5-(2-(4-(butylsulfonyl)piperazin-1-yl)-2-oxoethyl)-2-chlorophenyl)-4-chlorobenzamide], with 8.62 ± 0.09 µM.

For `Cc1ccccc1C(=O)Nc1cccc(N2CCC(C(=O)N3CCN(C)CC3)CC2)c1` [Compound 5k, 2-Methyl-N-(3-(4-(4-methylpiperazine-1-carbonyl)piperidin-1-yl)phenyl)benzamide], it took 16.61 ± 0.12 µM to reach half-maximal inhibition (IC50). In turn, `CS(=O)(=O)c1ccc(C(=O)Nc2ccc(Cl)c(-c3ccccn3)c2)c(Cl)c1` [Vismodegib, reference compound] gave a 50% inhibitory concentration (IC50) of 0.025 µM.

Take `CN1CCN(C(=O)C2CCN(c3cccc(NC(=O)c4cccnc4)c3)CC2)CC1` [Compound 5n, N-(3-(4-(4-methylpiperazine-1-carbonyl)piperidin-1-yl)phenyl)nicotinamide]: the 50% inhibitory concentration (IC50) was determined as 5.32 ± 0.13 µM. Still for that read-out and setting: then `CN1CCN(C(=O)C2CCN(c3cccc(NC(=O)c4ccccc4)c3)CC2)CC1` [Compound 5a, N-(3-(4-(4-Methylpiperazine-1-carbonyl)piperidin-1-yl)phenyl)benzamide], with 28.52 ± 0.02 µM; and `CN1CCN(C(=O)C2CCN(c3cccc(NC(=O)c4ccc(S(C)(=O)=O)cc4Cl)c3)CC2)CC1` [Compound 5o, 2-Chloro-N-(3-(4-(4-methylpiperazine-1-carbonyl)piperidin-1-yl)phenyl)-4-(methylsulfonyl)benzamide], with 4.28 ± 0.01 µM.

The test is the same for the next values; noted with them: NIH3T3 cells transfected with Gli luciferase reporter, stimulated with 10 nM SAG, 24 h; average of triplicate separate determinations.
The compound “3-Methyl-N-(3-(4-(4-methylpiperazine-1-carbonyl)piperidin-1-yl)phenyl)benzamide [Compound 5i]” gave a half-inhibitory concentration (IC50) of 16.32 ± 0.05 µM. “3-Methoxy-N-(3-(4-(4-methylpiperazine-1-carbonyl)piperidin-1-yl)phenyl)benzamide [Compound 5j]” came in with a 50% inhibitory concentration (IC50) of 4.74 ± 0.02 µM.

The target in a further test is T1, human Smo (Homo sapiens, UniProt Q99835).
T1 construct: HA; expressed in transfected cells; host or cells: HEK293
T1 sequence (Q99835 28-787): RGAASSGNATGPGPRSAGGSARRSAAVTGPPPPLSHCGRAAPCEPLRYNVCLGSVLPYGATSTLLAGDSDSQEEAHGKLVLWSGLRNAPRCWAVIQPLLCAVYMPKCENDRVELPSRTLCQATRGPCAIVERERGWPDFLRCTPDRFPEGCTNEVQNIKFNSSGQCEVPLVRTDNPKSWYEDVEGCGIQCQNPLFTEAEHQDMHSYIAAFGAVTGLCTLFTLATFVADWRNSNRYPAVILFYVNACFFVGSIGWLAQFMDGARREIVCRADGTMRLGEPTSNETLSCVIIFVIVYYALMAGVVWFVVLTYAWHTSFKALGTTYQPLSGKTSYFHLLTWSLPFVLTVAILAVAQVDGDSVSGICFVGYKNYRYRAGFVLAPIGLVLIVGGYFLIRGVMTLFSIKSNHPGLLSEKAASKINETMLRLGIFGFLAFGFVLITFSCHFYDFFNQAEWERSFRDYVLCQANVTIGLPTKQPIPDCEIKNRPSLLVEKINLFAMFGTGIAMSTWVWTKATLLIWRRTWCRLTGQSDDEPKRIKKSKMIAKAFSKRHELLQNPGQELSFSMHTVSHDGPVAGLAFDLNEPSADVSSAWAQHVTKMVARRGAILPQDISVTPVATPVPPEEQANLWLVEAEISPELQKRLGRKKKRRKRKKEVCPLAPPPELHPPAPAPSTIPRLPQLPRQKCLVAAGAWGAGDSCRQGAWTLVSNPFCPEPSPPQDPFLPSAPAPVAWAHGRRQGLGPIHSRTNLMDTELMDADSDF
The test is described as follows: hSmo BODIPY-cyclopamine competitive binding assay. The following applies: inhibition of BODIPY-cyclopamine fluorescence, competitive displacement, HEK 293 cells over-expressing human Smo; single IC50 determination; read-out: Smo-BCB IC50. How it is done: To determine whether the Hh inhibitory activities of the target compounds were derived from their inhibition to the Smo receptor, a binding assay was used.
3.3.2. Hsmo-BC Binding Assay
BODIPY-cyclopamine binding assay is a fluorescence-based assay used to analyze the binding of Smo agonists/antagonists. HEK293 cells were transfected with pCMV-HA/hSmo using Lipofectamine reagent (Lipofectamine™ 2000, Invitrogen, Carlsbad, CA, USA). Briefly, 50 μL of Lipofectamine 2000 and 22.5 μg of pCMV-HA/hSmo were each incubated in 1.5 mL of Opti-MEMI media (Invitrogen) at room temperature for 30 min and then was added to 1 × 10^6 HeK293 cells in 25 mL of culture medium in a 75 cm^2 cell culture flask. After overnight incubation under 5% CO2 at 37 °C, cells were detached using Versene (Invitrogen) and resuspended in culture medium. The suspended cells were added to a 96-well plate at 10,000 cells/well. After removing the media from each well, the cells were fixed with 4% paraformaldehyde (PFA) for 20 min at room temperature. Then the PFA buffer was removed, and the cells were incubated with 4′,6-diamidino-2-phenylindole (DAPI) ([…]) for 10 min, followed by washing with PBS four times. […] After incubation, the cells were washed five times with PBST (PBS buffer supplied with 0.05% Tween-20). The fluorescence images were automatically captured and analyzed by a high content fluorescence imaging system (Arrayscan VTI, Thermo, Waltham, MA, USA). Data was expressed as a percentage of fluorescence intensity observed with BODIPY-cyclopamine alone. […] IC50 values were calculated with GraphPad Prism software using the sigmoidal dose-response function.
Take `COc1cc(OC)cc(C(=O)Nc2cccc(N3CCC(C(=O)N4CCN(C)CC4)CC3)c2)c1` [Compound 5l, 3,5-Dimethoxy-N-(3-(4-(4-methylpiperazine-1-carbonyl)piperidin-1-yl)phenyl)benzamide]: the IC50 was 2.41 ± 0.01 µM. With `CN1CCN(C(=O)C2CCN(c3cccc(NC(=O)c4cccc(-c5ccccn5)c4)c3)CC2)CC1` [Compound 5q, N-(3-(4-(4-methylpiperazine-1-carbonyl)piperidin-1-yl)phenyl)-3-(pyridin-2-yl)benzamide], the IC50 is 1.61 ± 0.02 µM. `CN1CCN(C(=O)C2CCN(c3cccc(NC(=O)c4cccnc4)c3)CC2)CC1` [Compound 5n, N-(3-(4-(4-methylpiperazine-1-carbonyl)piperidin-1-yl)phenyl)nicotinamide]: the concentration for half-maximal inhibition (IC50) was 6.35 ± 0.07 µM. The same measure, in the same setting: then `CN1CCN(C(=O)C2CCN(c3cccc(NC(=O)c4ccc(S(C)(=O)=O)cc4Cl)c3)CC2)CC1` [Compound 5o, 2-Chloro-N-(3-(4-(4-methylpiperazine-1-carbonyl)piperidin-1-yl)phenyl)-4-(methylsulfonyl)benzamide], with 6.23 ± 0.12 µM.
